Source: patent US10322087B2, “Targeted liposomal delivery of cGMP analogues” (priority 2015, dated 2019)
Entries after “also recorded” stand apart in the source; their conditions may differ.

Tests used:
[1] = tested on: rd1 and rd2 photoreceptors; conditions: in vitro and in vivo mouse retinitis pigmentosa models; cited from earlier work
PKG2 = PKG2 (Homo sapiens, UniProt Q13237); test: Inhibitory constants for DF003, PKG2; assay type: biochemical
Text: (§1) The active compound DF003 is an analogue of cGMP, blocking PKG activity with high specificity. This is particularly true for the PKG1α and PKG1β isoforms, while PKG2 is less well inhibited. The inhibitory constants for the two other potential targets CNGC and protein kinase A (PKA) isoforms 1 and 2 are 2-3 log units higher (Table 2) than those for PKG isoforms. cGMP and its analogues are targeting PKG and CNGC but could potentially also interfere with PKA, PDE or even HCN channel activity. The table gives the inhibitory constants (Ki) of DF003 for these targets and (where available) the IC50 values.

[2] = tested on: wild-type (wt) photoreceptor-like cells; test: Primary retinal cell culture, wild-type; assay type: cell-based, mouse; conditions: up to the highest concentration used, 50 μM
Protocol: (§2) Different doses of DF003 and LP-DF003 were tested in vitro on a primary culture of retinal cells derived from the rd1 mouse model. About 20-30% of the primary cells can be differentiated into rod photoreceptors (Demontis et al. 2012, PLoS One. 7, e33338; Giordano et al. 2007, Mol. Vis. 13, 1842-1850). Retinal stem cells from adult wt and rd1 mice were isolated from the ciliary epithelium after treatment with 2 mg/ml dispase (20 min) followed by 1.33 mg/ml trypsin 0.67 mg/ml, hyaluronidase and 0.13 mg/ml kynurenic acid (10 min) and cultured for a week in serum free medium containing 20 ng/ml basic FGF, 2 μg/ml heparin, 0.6% glucose, N2 hormone mix in DMEM-F12 to form neurospheres (Giordano et al., 2007, supra). Retinal neurospheres were then plated on glass slides coated with extracellular matrix (ECM, Sigma) in DMEM-F12 supplemented with 20 ng/ml FGF for 4 days. […] Cell death was evaluated by staining of cells for 2 minutes with 2 μM Ethidium homodimer and counterstaining of nuclei with DAPI (4′,6-diamidino-2-phenylindole, Sigma). Slides were mounted with mowioll 4-88 (Sigma) and analysed at a Zeiss Axioskop 40 fluorescence microscope. Ethidium homodimer positive cells were counted in each slide and expressed as percentages of the total number of cells (DAPI stained) per slide. […]

PDE5 = PDE5 (Homo sapiens, UniProt O76074); test: Inhibitory constants for DF003, PDE5; assay type: biochemical
Text: as §1

PDE2 = PDE2 (Homo sapiens, UniProt O00408); test: Inhibitory constants for DF003, PDE2; assay type: biochemical
Text: as §1

wt explant cultures = test: Organotypic retinal explant culture, wt; assay type: cell-based, mouse; conditions: up to 50 μM
Text: (§3) For biochemical analyses and comparisons between models and wt tissues, we typically use material from ages corresponding to the onset of retinal degeneration. Retinal tissue is obtained from post-natal day 5 (PN5) animals, from which, after sacrifice, the eyes are enucleated and retinae cultured as retinal explants. In brief, the retina with the retinal pigment epithelium (RPE) still attached is isolated and subsequently transferred to Millicell culture dish filter inserts (Millipore AB, Solna, Sweden; PIHA03050), with the RPE layer facing the culturing membrane. The explants are then incubated in custom made R16 nutrient medium at 37° C. The nutrient medium has a volume of 1.5 ml per dish, which is replaced with fresh medium usually every second day (unless the exact culturing paradigm requires otherwise) during the culturing period.
(§4) PN5 explants were allowed to adjust to culture conditions for two days in vitro (DIV), after which they were subjected to treatments of interest. […]
(§5) In both cases the results were captured by means of a microscope and digital camera, analysed manually or semi-automatically, and this was then followed by calculations for statistical significance of the recorded data in principle as published previously (Arango-Gonzalez et al. 2014, PLoS One. 9, e112142).

[3] = tested on: retinal explants of rd2 mouse model; test: Organotypic retinal explant culture, rd2; assay type: cell-based; conditions: data not shown
Text: as §3, §4, §5

[4] = tested on: organotypic rd1 retinal explant cultures; test: Organotypic retinal explant culture, rd1; assay type: cell-based, mouse
Text: as §3, §4, §5

PKA1 = test: Inhibitory constants for DF003, PKA1; assay type: biochemical
Text: as §1

PDE1B = PDE1B (Homo sapiens, UniProt Q01064); test: Inhibitory constants for DF003, PDE1B; assay type: biochemical
Text: as §1

[5] = tested on: rd1 photoreceptor-like cells; test: Primary retinal cell culture, cell death (Ethidium homodimer), rd1; assay type: cell-based, mouse
Protocol: as §2

PDE10 = PDE10 (Homo sapiens, UniProt Q9Y233); test: Inhibitory constants for DF003, PDE10; assay type: biochemical
Text: as §1

[6] = tested on: retinal explants of rd10 model; test: Organotypic retinal explant culture, rd10; assay type: cell-based, mouse; conditions: data not shown
Text: as §3, §4, §5

[7] = Pharmacokinetic study in adult rats; conditions: rat, blood, 20 mg/kg, single injection 20 mg/kg, read-out: in vivo half-life
Protocol: A pharmacokinetic study was performed in adult rats (3 months old) that received a single injection of either free DF003 or LP-DF003 at an initial dose of 20 mg/kg.

PDE4 = test: Inhibitory constants for DF003, PDE4; assay type: biochemical
Text: as §1

PKG1α = PKG1α (Homo sapiens, UniProt Q13976); test: Inhibitory constants for DF003, PKG1α; assay type: biochemical
Text: as §1

PKA2 = test: Inhibitory constants for DF003, PKA2; assay type: biochemical
Text: as §1

rd1 mice = test: In vivo retinitis pigmentosa model, rd1 mouse; conditions: PN14, intraperitoneal 50 mg/kg once per day, vs untreated rd1
Protocol: Before treatment with drug or drug/DDS combinations, the animals were anesthetized with diethyl-ether. For systemic treatment, 0.9% NaCl solution containing liposomal DDS/drug formulation were injected either into the tail vein (caudal vein; intravenous; i.v.; 50 μl) or into the peritoneum (intraperitoneal; i.p.; 200 μl) of the anesthetized animal. In rd10 mice, a local intravitreal (IVT) treatment was also tested. Here, the animals received a 0.5 μl injection into the vitreous body of one eye, while the other eye was kept as untreated, contralateral control. For both i.p. and IVT treatments a liposomal formulation not containing DF003 (i.e. “empty” liposomes) was used as an additional control.
The in vivo treatment was performed initially on rd1 animals, but later extended to other animal models (rd2, rd10, cpfl1, Rho P23H). […]
At various post-treatment time-points (see Table 1), in vivo optic coherence tomography (OCT) and scanning laser ophthalmoscopy (SLO) analysis was used for direct, non-invasive imaging of retinal morphology (OCT) and of fluorescently labelled drugs (SLO) or drug/DDS combinations to determine the distribution and uptake of drug in the retina. In addition, retinal function was assessed using electroretinographic (ERG) recordings. […]

CNGC = test: Inhibitory constants for DF003, CNGC; assay type: biochemical
Text: as §1

PKG1β = PKG1β (Homo sapiens, UniProt Q13976); test: Inhibitory constants for DF003, PKG1β; assay type: biochemical
Text: as §1

Chain of PKG2 (Q13237 whole entry, canonical isoform): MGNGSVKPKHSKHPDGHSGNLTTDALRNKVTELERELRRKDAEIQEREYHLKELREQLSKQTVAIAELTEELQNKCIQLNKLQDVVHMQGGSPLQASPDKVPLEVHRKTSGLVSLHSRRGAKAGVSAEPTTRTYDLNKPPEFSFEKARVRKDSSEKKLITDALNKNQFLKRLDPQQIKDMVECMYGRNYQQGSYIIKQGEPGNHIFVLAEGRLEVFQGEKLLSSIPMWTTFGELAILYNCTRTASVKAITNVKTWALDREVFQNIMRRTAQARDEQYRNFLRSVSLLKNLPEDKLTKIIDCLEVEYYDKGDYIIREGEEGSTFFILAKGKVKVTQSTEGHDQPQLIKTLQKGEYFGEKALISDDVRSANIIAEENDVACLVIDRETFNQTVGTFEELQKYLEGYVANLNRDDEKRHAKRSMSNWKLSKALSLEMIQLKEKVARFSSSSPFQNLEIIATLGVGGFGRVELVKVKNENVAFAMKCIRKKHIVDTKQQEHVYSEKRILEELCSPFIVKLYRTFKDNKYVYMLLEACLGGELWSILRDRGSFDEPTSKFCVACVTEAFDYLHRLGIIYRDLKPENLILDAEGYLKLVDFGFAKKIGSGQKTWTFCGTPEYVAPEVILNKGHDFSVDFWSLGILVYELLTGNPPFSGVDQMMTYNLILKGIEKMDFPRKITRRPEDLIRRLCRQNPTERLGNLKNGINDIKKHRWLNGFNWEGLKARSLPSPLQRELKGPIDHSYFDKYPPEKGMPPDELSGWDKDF
Chain of PDE1B (Q01064 whole entry, species assumed): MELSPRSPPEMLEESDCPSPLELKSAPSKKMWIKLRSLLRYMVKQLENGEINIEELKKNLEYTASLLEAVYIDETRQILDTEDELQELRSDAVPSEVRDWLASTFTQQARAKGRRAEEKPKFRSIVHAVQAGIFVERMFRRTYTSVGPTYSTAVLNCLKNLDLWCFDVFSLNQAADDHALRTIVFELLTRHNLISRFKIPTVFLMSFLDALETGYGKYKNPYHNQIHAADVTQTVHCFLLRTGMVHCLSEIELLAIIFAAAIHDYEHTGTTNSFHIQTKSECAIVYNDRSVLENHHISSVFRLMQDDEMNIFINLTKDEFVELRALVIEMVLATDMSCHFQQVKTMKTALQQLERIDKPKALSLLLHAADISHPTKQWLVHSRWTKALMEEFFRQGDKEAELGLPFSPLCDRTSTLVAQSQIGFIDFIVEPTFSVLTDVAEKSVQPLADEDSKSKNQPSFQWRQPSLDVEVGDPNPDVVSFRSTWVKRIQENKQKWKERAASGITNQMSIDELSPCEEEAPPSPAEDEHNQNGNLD
Chain of PDE10 (Q9Y233 whole entry): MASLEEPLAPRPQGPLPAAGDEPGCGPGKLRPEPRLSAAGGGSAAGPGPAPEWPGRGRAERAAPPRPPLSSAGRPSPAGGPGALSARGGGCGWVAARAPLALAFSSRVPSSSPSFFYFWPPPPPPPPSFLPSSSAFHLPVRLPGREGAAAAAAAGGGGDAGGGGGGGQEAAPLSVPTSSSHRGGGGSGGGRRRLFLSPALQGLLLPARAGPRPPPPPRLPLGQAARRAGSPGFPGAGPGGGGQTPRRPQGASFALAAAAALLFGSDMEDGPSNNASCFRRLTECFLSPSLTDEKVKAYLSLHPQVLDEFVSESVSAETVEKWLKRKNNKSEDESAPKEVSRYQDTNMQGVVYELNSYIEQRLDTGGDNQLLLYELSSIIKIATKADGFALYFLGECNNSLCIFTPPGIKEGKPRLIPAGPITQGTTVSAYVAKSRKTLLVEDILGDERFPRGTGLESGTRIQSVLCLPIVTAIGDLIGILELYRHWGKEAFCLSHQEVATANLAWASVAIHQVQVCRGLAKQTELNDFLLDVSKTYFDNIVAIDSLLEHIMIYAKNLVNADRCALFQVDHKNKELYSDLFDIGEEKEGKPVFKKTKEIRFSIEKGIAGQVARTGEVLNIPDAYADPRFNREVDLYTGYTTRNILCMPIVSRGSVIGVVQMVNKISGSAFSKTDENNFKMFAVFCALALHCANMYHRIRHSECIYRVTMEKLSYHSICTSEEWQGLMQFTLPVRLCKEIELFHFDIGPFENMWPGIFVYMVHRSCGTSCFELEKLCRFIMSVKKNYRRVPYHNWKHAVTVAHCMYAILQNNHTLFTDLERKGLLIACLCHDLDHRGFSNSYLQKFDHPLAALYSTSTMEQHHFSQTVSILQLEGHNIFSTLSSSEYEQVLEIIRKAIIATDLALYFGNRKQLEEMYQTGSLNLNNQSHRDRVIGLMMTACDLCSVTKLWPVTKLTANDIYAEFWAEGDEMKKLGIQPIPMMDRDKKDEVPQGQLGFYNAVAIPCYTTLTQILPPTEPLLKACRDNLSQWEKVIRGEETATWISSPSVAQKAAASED
Chain of PKG1α (Q13976 whole entry): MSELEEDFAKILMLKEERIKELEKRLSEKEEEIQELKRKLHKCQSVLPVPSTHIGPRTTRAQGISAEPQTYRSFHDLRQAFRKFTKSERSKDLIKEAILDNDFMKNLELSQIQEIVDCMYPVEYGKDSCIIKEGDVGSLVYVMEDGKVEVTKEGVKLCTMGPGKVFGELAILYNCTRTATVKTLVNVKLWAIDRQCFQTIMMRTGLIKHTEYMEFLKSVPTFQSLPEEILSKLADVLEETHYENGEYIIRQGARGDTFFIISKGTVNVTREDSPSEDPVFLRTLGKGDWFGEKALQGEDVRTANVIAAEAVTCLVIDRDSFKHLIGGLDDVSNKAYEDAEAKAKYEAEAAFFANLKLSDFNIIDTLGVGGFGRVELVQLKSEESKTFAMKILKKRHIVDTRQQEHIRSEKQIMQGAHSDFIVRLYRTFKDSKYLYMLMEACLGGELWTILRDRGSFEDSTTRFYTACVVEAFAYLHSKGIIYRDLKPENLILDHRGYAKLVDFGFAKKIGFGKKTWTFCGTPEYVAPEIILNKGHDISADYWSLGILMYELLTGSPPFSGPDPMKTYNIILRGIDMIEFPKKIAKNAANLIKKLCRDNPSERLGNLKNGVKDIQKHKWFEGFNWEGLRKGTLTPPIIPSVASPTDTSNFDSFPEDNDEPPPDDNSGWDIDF
Chain of PKG1β (Q13976 1-686 isoform Q13976-2): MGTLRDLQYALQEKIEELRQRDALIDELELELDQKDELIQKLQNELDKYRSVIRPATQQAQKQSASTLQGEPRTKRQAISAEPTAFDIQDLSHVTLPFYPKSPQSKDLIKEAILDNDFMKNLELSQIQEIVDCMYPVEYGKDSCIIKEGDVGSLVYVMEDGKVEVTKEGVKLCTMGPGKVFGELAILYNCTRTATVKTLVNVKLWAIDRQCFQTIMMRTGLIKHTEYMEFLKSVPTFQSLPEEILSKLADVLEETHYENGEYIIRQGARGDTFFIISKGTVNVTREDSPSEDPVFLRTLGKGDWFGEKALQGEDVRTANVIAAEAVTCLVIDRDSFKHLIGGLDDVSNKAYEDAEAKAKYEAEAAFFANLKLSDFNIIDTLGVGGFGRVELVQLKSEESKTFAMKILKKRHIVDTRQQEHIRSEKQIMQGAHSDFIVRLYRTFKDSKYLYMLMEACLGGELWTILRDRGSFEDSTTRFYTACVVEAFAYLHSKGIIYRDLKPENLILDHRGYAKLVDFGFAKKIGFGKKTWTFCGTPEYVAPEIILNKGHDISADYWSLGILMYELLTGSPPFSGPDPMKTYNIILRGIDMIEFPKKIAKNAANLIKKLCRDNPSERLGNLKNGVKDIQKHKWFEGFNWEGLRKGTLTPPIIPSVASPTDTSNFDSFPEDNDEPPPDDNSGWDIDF
Chain of PDE2 (O00408 whole entry): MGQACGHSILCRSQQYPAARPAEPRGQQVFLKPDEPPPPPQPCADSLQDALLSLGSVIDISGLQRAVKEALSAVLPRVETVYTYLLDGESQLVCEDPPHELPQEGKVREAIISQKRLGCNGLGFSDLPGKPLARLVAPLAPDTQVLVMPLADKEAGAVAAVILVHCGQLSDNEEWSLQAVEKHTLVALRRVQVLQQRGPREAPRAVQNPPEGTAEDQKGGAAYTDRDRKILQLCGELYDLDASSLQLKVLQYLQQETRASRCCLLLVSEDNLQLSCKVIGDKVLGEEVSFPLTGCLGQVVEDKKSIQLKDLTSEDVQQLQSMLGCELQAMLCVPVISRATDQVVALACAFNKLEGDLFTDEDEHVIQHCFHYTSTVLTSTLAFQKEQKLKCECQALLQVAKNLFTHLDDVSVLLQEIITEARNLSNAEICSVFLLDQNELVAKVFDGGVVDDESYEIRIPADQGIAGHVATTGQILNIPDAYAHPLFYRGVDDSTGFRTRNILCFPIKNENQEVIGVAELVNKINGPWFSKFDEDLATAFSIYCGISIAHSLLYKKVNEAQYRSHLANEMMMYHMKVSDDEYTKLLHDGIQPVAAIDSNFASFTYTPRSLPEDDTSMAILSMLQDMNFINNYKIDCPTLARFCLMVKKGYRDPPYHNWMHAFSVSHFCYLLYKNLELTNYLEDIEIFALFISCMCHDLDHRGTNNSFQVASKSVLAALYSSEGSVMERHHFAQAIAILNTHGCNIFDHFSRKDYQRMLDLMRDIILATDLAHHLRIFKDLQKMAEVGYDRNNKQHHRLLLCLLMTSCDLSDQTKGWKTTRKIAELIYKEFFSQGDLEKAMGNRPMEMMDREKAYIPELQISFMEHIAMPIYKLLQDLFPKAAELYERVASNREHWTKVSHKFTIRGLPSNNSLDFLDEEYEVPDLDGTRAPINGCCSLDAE

**Q.** With `Nc1nc2c(nc(Br)n2[C@@H]2O[C@@H]3COP(O)(=S)O[C@H]3[C@H]2O)c(=O)[nH]1` (stereo partly drawn) [Rp-8-Br-cGMPS] as the molecule, how does the “protection of rd1 and rd2 photoreceptors” value [1] read?
**A.** some protection

**Q.** Which IC50 (PKG2) does the source give for `O=c1c2nc(Br)n(C3OC4COP(O)(=S)OC4C3O)c2nc2[nH]c(-c3ccccc3)cn12` [DF003, Sodium, 3-[(4 aR,6R,7R,7aS)-7-hydroxy-2-oxido-2-sulfanylidene-4a,6,7,7a-tetrahydro-4H-furo [3,2-d] [1,3,2]dioxaphosphinin-6-yl]-2-bromo-6-phenyl-5H-imidazo [1,2-a] purin-9-one] here?
**A.** 900 nM

**Q.** What about the Ki (PKG2) of the same molecule?
**A.** 450 nM

**Q.** What about the “effect on wild-type photoreceptor-like cells (toxicity)” value [2] of the same molecule?
**A.** not affected

**Q.** And the Ki (PDE5)?
**A.** 4100 nM

**Q.** What about the Ki (PDE2) of the same molecule?
**A.** 800 nM

**Q.** What about the “toxicity in wt retinal explants” value (wt explant cultures) of the same molecule?
**A.** no signs of toxicity; also recorded: not affected

**Q.** What about the “photoreceptor death in rd2 retinal explants” value [3] of the same molecule?
**A.** prevented photoreceptor death

**Q.** What about the “photoreceptor death in rd1 retinal explants” value ([4]; FIG. 1B) of the same molecule?
**A.** reduced photoreceptor death; also recorded: preserved the viability

**Q.** And the “toxicity in the inner retina” value ([4]; organotypic retinal explants, data not shown)?
**A.** no evidence of DF003 toxicity

**Q.** And the Ki (PKA1)?
**A.** > 50000 nM

**Q.** What about the Ki (PDE1B) of the same molecule?
**A.** 2500 nM

**Q.** What about the “lowest concentration that still reduced the death of rd1 photoreceptor-like cells” value ([5]; LP-DF003 dose expressed as corresponding DF003 concentration) of the same molecule?
**A.** 100 nM

**Q.** What about the “protective effect on rd1 photoreceptor-like cells” value ([5]; cell culture, FIG. 1A) of the same molecule?
**A.** preserved the viability

**Q.** What about the Ki (PDE10) of the same molecule?
**A.** 5000 nM

**Q.** What about the “photoreceptor death in rd10 retinal explants” value [6] of the same molecule?
**A.** prevented photoreceptor death

**Q.** And the half-life [7]?
**A.** ~15 min

**Q.** What about the Ki (PDE4) of the same molecule?
**A.** 8100 nM

**Q.** What about the Ki (PKG1α) of the same molecule?
**A.** 35 nM

**Q.** And the Ki (PKA2)?
**A.** 11000 nM

**Q.** And the rd1 photoreceptor survival (rd1 mice)?
**A.** did not show any improvement; also recorded: had no effect

**Q.** And the IC50 (CNGC)?
**A.** 25000 nM

**Q.** What about the “inhibitory constants for CNGC and PKA isoforms 1 and 2 higher than those for PKG isoforms” value (CNGC; CNGC and PKA1/PKA2 versus PKG isoforms) of the same molecule?
**A.** 2-3 log units

**Q.** And the Ki (PKG1β)?
**A.** 30 nM
